Literature values in patent US20090155357A1, “Alcohol Resistant Pharmaceutical Formulations” (priority 2005, published 2009).

Assays:
[1] = solubility in alcohol
[2] = solubility in water

Q: What does the source list for `CCCCCCCCCCCCCCCCCC(=O)OCC(O)CO` (stereo not shown) [Glyceryl Monostearate]?
A: Alcohol [1]: I; Water [2]: I

Q: With `CCCCCCCCCCCCCCCC(=O)OCC(O)CO` (stereo not shown) [Glyceryl Palmitate] as the compound, how does the Alcohol [1] read?
A: I

Q: What about the Water [2] of the same compound?
A: I

Q: What does the source list for `[O]=[Mg]` [Magnesium Oxide]?
A: Alcohol [1]: I; Water [2]: I

Q: Which results are given for “Dibasic/Tribasic calcium phosphate dihydrate”?
A: Alcohol [1]: I; Water [2]: I

Q: Which Alcohol [1] does the source give for Glyceryl Behanate here?
A: I

Q: And the Water [2]?
A: I
